SMILES strings stand for the structures.

The target in test [1] is T1, recombinant BRD4 BD1 (Homo sapiens, UniProt O60885).
T1 construct: recombinant BRD4 BD1 and BRD4 BD2 proteins
The test is described as follows: Competitive fluorescence-polarization (FP) binding assay, BRD4 BD1. The conditions noted are these: FAM labeled probe 1.5 nM, protein 10 nM, pH 6.5. As for the experimental part: (§1) Fluorescence Polarization (FP) competitive binding studies were carried out using a FAM labeled fluorescent probe (ZBA248 or BRD-1F) to determine binding affinities of representative Compounds of the Disclosure for recombinant BRD4 BD1 and BRD4 BD2 proteins. For example, equilibrium dissociation constants (Kd) values of ZBA248 to these six proteins were determined from protein saturation experiments by monitoring the total fluorescence polarization of mixtures composed with the fluorescent probe at a fixed concentration and proteins with increasing concentrations up to full saturation. Serial dilutions of testing protein were mixed with ZBA248 to a final volume of 200 μl in the assay buffer. In order to achieve large dynamic rages, particularly for BD1 bromodomains, 100 mM phosphate buffer (pH=6.5, 0.01% Triton X-100 (Sigma, 282103) being added right before assays) was used as the assay buffer. Final ZBA248 concentration was 1.5 nM for all proteins. Plates were incubated at room temperature for 30 minutes with gentle shaking to assure equilibrium. FP values in millipolarization units (mP) were measured using the Infinite M-1000 plate reader (Tecan U.S., Research Triangle Park, N.C.) in Microfluor 1 96-well, black, round-bottom plates (Thermo Scientific, Waltham, Mass.) at an excitation wavelength of 485 nm and an emission wavelength of 530 nm. Kd values of ZBA248 were calculated by fitting the sigmoidal dose-dependent FP increases as a function of protein concentrations using Graphpad Prism 6.0 software (Graphpad Software, San Diego, Calif.).
(§2) The IC50 and Ki values of representative Compounds of the Disclosure were determined in a competitive binding experiment as described above. Mixtures of 10 μl of the tested compounds in assay buffer with 40% Ethylene Glycol and 190 μl of preincubated protein/probe complex solution in the assay buffer (100 mM potassium phosphate, pH 6.5, 0.01% Triton X-100) were added into assay plates which were incubated at room temperature for 30 minutes with gentle shaking. Final concentrations of proteins were 10 and 6 nM in assays for BD1 and BD2 of BRD4, respectively. Final probe concentration is 1.5 nM in all assays. Negative controls containing protein/probe complex only (equivalent to 0% inhibition), and positive controls containing only free probes (equivalent to 100% inhibition), were included in each assay plate. FP values were measured as described above. IC50 values were determined by nonlinear regression fitting of the competition curves. Instead of being calculated from IC50 values as described before, Ki values of competitive inhibitors were obtained directly by nonlinear regression fitting as well, based upon the Kd values of the probe to different proteins, and concentrations of the proteins and probes in the competitive assays (Wang, FEBS Lett. 360; 111 (1995); Zhang et al., Analytical Biochemistry, 331; 138 (2004)).
(§3) Binding affinities of representative Compounds of the Disclosure to BRD4 BD1 and BRD4 BD2 proteins in competitive, fluorescence-polarization assays are presented in Table 2.

Test [2] deals with T2, recombinant BRD4 BD2 (Homo sapiens, UniProt O60885).
T2 construct: recombinant BRD4 BD1 and BRD4 BD2 proteins
Nature of the test: Competitive fluorescence-polarization (FP) binding assay, BRD4 BD2. The conditions noted are these: FAM labeled probe 1.5 nM, protein 6 nM, pH 6.5. How it is done:
as §1, §2, §3

Test [3] relates to LNCaP cells. Nature of the test: Cell growth inhibition, 4-day proliferation assay, LNCaP. The format is cell-based. The conditions noted are these: Homo sapiens, 96 h, prostate cancer cell line, 4 days treatment. How it is done:
(§4) The effect of representative Compounds of the Disclosure on cell viability was determined in a 4-day proliferation assay. Cells were maintained in the appropriate culture medium with 10% FBS at 37° C. and an atmosphere of 5% CO2. All the cell lines were used within three months of thawing fresh vials.
(§5) Cells were seeded in 96-well flat bottom (Corning COSTAR, Corning, NY, cat#3595) or white opaque cell culture plates (BD Falcon, cat#353296) at a density of 3,000-10,000 cells/well in 75 μl of culture medium. Compounds were serially diluted in the appropriate medium, and 75 μl of the diluted compounds were added to the appropriate wells of the cell plate. After the addition of compounds, the cells were incubated at 37° C. in an atmosphere of 5% CO2 for 4 days. Cell viability was determined using the CellTiter-Glo® Luminescent Cell Viability Assay Kit (Promega, Madison, Wis.) for RS4-11 and MV4-11 cells and WST (2-(2-methoxy-4-nitrophenyl)-3-(4-nitrophenyl)-5-(2,4-disulfophenyl)-2H-tetrazolium, monosodium salt) Cell Counting-8 Kit (Dojindo Molecular Technologies, Inc., Rockville, Md.) for MDA-MB-231 cells according to the manufacturers' instructions.
(§6) Cell growth inhibition of representative Compounds of the Disclosure in representative breast cancer (MDA-MB-231), acute leukemia (MV4-11), and prostate cancer cell lines (LNCaP), as determined by a WST assay, are presented in Table 3. Cells were treated with each inhibitor for 4 days.

The test system of test [4] is MDA-MB-231 cells. The test is described as follows: Cell growth inhibition, 4-day proliferation assay (WST), MDA-MB-231. In kind it is cell-based. The conditions noted are these: Homo sapiens, MDA-MB-231, 96 h, breast cancer cell line, 4 days treatment. How it is done:
as §4, §5
For WST assay (MDA-MB-231 cells), WST-8 reagent was added to each well at a final concentration of 10% (v/v), and then the plates were incubated at 37° C. for 1-2 hours for color development. The absorbance was measured at 450 nm using a SPECTRAmax PLUS plate reader (Molecular Devices, Sunnyvale, Calif.). The readings were normalized to the DMSO-treated cells and the half maximal inhibitory concentration (IC50) was calculated by nonlinear regression (four parameters sigmoid fitted with variable slope, least squares fit, and no constraint) analysis using the GraphPad Prism 5 software (GraphPad Software, La Jolla, Calif.).
as §6

Test [5] relates to MV4-11 cells. The test is described as follows: Cell growth inhibition, 4-day proliferation assay, MV4-11. The conditions noted are these: Homo sapiens, MV4-11, 96 h, acute leukemia cell line, 4 days treatment. The format is cell-based. As for the experimental part:
as §4, §5
For CellTiter-Glo assay (RS4-11 and MV4-11 cells), 100 μl of CellTiter-Glo® Reagent was added to each well, and then the plates were incubated at room temperature for 10-20 minutes. The luminescent signal was measured using a Tecan Infinite M1000 multimode microplate reader (Tecan, Morrisville, N.C.). The readings were normalized to the DMSO-treated cells and the IC50 was calculated by nonlinear regression (four parameters sigmoid fitted with variable slope, least squares fit, and no constraint) analysis using the GraphPad Prism 5 software.
as §6

Take `COc1cc2c(cc1-c1c(C)noc1C)[nH]c1nc(C)nc(Nc3cc(C4CC4)nn3-c3cn(C)cn3)c12` [Cpd. No. 14, N-(3-Cyclopropyl-1-(1-methyl-1H-imidazol-4-yl)-1H-pyrazol-5-yl)-7-(3,5-dimethylisoxazol-4-yl)-6-methoxy-2-methyl-9H-pyrimido[4,5-b]indol-4-amine]: the results for the IC50 in test [1] and in test [2] were 0.141 µM and 0.0197 µM, respectively.
Consider `COc1cc2c(cc1-c1c(C)noc1C)[nH]c1nc(C)nc(Nc3cc(C4CC4)nn3-c3ccc(C(=O)O)cc3)c12` [Cpd. No. 10, 4-(3-Cyclopropyl-5-((7-(3,5-dimethylisoxazol-4-yl)-6-methoxy-2-methyl-9H-pyrimido[4,5-b]indol-4-yl)amino)-1H-pyrazol-1-yl)benzoic acid], for which the 50% inhibitory concentration (IC50) is 0.054 µM in test [1] and 0.0752 µM in test [2].
`COc1cc2c(cc1-c1c(C)noc1C)[nH]c1nc(N)nc(Nc3c4c(nn3C)CCC4)c12` [Cpd. No. 3, 7-(3,5-dimethylisoxazol-4-yl)-6-methoxy-N4-(2-methyl-2,4,5,6-tetrahydrocyclopenta[c]pyrazol-3-yl)-9H-pyrimido[4,5-b]indole-2,4-diamine]: the IC50 was determined as 0.0035 µM in test [1], 0.0016 µM in test [2], 0.067 µM in test [3] and 0.018 µM in test [4].
As to `COc1cc2c(cc1-n1c(C)nnc1C)[nH]c1ncnc(Nc3cc(C4CC4)nn3C)c12` [Cpd. No. 8, N-(3-Cyclopropyl-1-methyl-1H-pyrazol-5-yl)-7-(3,5-dimethyl-4H-1,2,4-triazol-4-yl)-6-methoxy-9H-pyrimido[4,5-b]indol-4-amine], the IC50 in test [1] is 0.652 µM; in test [2] it was 1.3 µM; in test [4] it was > 1 µM.
On to `CCn1nc2c(c1Nc1nc(N)nc3[nH]c4cc(-c5c(C)noc5C)c(OC)cc4c13)CCC2` [Cpd. No. 4, 7-(3,5-dimethylisoxazol-4-yl)-N4-(2-ethyl-2,4,5,6-tetrahydrocyclopenta[c]pyrazol-3-yl)-6-methoxy-9H-pyrimido[4,5-b]indole-2,4-diamine], for which the IC50 is 0.001 µM in test [1], 0.0025 µM in test [2], 0.02 µM in test [3] and 0.006 µM in test [4].
Take `COc1cc2c(cc1-c1c(C)n[nH]c1C)[nH]c1ncnc(Nc3cc(C4CC4)nn3C)c12` [Cpd. No. 11, N-(3-cyclopropyl-1-methyl-1H-pyrazol-5-yl)-7-(3,5-dimethyl-1H-pyrazol-4-yl)-6-methoxy-9H-pyrimido[4,5-b]indol-4-amine]: the values for the IC50 in test [1] and in test [2] were 0.103 µM and 0.0915 µM, respectively.
For the molecule `COCc1nc(Nc2c3c(nn2C(C)C)CCC3)c2c(n1)[nH]c1cc(-c3c(C)noc3C)c(OC)cc12` [Cpd. No. 6, 7-(3,5-dimethylisoxazol-4-yl)-N-(2-isopropyl-2,4,5,6-tetrahydrocyclopenta[c]pyrazol-3-yl)-6-methoxy-2-(methoxymethyl)-9H-pyrimido[4,5-b]indol-4-amine], the IC50 in test [5] was found to be 0.004 µM; in test [1], 0.0036 µM; in test [2], 0.0029 µM; in test [4], 0.006 µM.
`COc1cc2c(cc1-c1c(C)noc1C)[nH]c1nc(C)nc(Nc3cc(C4CC4)nn3-c3cnn(C)c3)c12` [Cpd. No. 12, N-(3-Cyclopropyl-1′-methyl-1′H-[1,4′-bipyrazol]-5-yl)-7-(3,5-dimethylisoxazol-4-yl)-6-methoxy-2-methyl-9H-pyrimido[4,5-b]indol-4-amine]: the half-maximal inhibitory concentration (IC50) in test [1] was 0.0182 µM; in test [2], 0.0121 µM.
For `COc1cc2c(cc1Br)[nH]c1ncnc(Nc3cc(C4CC4)nn3C)c12` [Cpd. No. 1, 7-Bromo-N-(3-cyclopropyl-1-methyl-1H-pyrazol-5-yl)-6-methoxy-9H-pyrimido[4,5-b]indol-4-amine] the same measures were > 1 µM and > 1 µM.
`COc1cc2c(cc1-c1c(C)noc1C)[nH]c1nc(C)nc(Nc3cc(C4CC4)nn3-c3ccncc3)c12` [Cpd. No. 9, N-(3-Cyclopropyl-1-(pyridin-4-yl)-1H-pyrazol-5-yl)-7-(3,5-dimethylisoxazol-4-yl)-6-methoxy-2-methyl-9H-pyrimido[4,5-b]indol-4-amine]: the concentration for half-maximal inhibition (IC50) turned out to be 0.0226 µM in test [1], 0.019 µM in test [2] and 0.066 µM in test [4].
As for `COc1cc2c(cc1-c1c(C)noc1C)[nH]c1nc(N)nc(Nc3cc(C4CC4)nn3C(C)C)c12` [Cpd. No. 2, N4-(3-cyclopropyl-1-isopropyl-1H-pyrazol-5-yl)-7-(3,5-dimethylisoxazol-4-yl)-6-methoxy-9H-pyrimido[4,5-b]indole-2,4-diamine], the IC50 in test [1] was found to be 0.001 µM; in test [2], 0.0021 µM; in test [3] it was 0.003 µM; in test [4] it was 0.046 µM.
In the case of `COc1cc2c(cc1-c1c(C)nn(C)c1C)[nH]c1ncnc(Nc3cc(C4CC4)nn3C)c12` [Cpd. No. 21, N-(3-Cyclopropyl-1-methyl-1H-pyrazol-5-yl)-6-methoxy-7-(1,3,5-trimethyl-1H-pyrazol-4-yl)-9H-pyrimido[4,5-b]indol-4-amine], the IC50 in test [1] and in test [2] was > 1 µM in each case.
For the molecule `COc1cc2c(cc1-n1c(C)nnc1C)[nH]c1nc(C)nc(Nc3cc(C4CC4)nn3C)c12` [Cpd. No. 15, N-(3-cyclopropyl-1-methyl-1H-pyrazol-5-yl)-7-(3,5-dimethyl-4H-1,2,4-triazol-4-yl)-6-methoxy-2-methyl-9H-pyrimido[4,5-b]indol-4-amine], the IC50 in test [1] came to 0.131 µM; in test [2] it was 0.132 µM; in test [4], 1.4 µM.
For the molecule `COc1cc2c(cc1-c1c(C)noc1C)[nH]c1nc(C)nc(Nc3cc(C4CC4)n(-c4cnn(C)c4)n3)c12` [Cpd. No. 13, N-(5-Cyclopropyl-1′-methyl-1′H-[1,4′-bipyrazol]-3-yl)-7-(3,5-dimethylisoxazol-4-yl)-6-methoxy-2-methyl-9H-pyrimido[4,5-b]indol-4-amine], the IC50 in test [1] is 0.0597 µM; in test [2], 0.0343 µM.

These data come from patent publication US10307407B2, “9H-pyrimido [4,5-B] indoles as BET bromodomain inhibitors” (THE REGENTS OF THE UNIVERSITY OF MICHIGAN, priority 2015, dated 2019).
